Experiments:
[1] = target: T1, 5-hydroxytryptamine receptor 2A (Homo sapiens, UniProt P28223); test: Displacement of [3H]Ketanserin from human recombinant 5-HT2A receptor expressed in CHO-K1 cells at 10 uM after 15 mins; type: cell-based
[2] = target: T2, 5-hydroxytryptamine receptor 6 (Homo sapiens, UniProt P50406); test: Inhibition of human recombinant 5-HT6 receptor expressed in HEK293 cells assessed as inhibition of 5-HT-induced increase in […] pretreated at 10 uM for 10 mins by cAMP accumulation assay; type: functional, cell-based
[3] = target: T1, 5-hydroxytryptamine receptor 2A; test: Displacement of [3H]Ketanserin from human recombinant 5-HT2A receptor expressed in CHO-K1 cells after 15 mins; type: cell-based
[4] = target: T3, 5-hydroxytryptamine receptor 2C (Homo sapiens) (UniProt P28335); test: Displacement of [3H]Mesulergine from human recombinant 5-HT2C receptor expressed in CHO-K1 cells at 10 uM after 15 mins; type: cell-based
T3 sequence (whole entry): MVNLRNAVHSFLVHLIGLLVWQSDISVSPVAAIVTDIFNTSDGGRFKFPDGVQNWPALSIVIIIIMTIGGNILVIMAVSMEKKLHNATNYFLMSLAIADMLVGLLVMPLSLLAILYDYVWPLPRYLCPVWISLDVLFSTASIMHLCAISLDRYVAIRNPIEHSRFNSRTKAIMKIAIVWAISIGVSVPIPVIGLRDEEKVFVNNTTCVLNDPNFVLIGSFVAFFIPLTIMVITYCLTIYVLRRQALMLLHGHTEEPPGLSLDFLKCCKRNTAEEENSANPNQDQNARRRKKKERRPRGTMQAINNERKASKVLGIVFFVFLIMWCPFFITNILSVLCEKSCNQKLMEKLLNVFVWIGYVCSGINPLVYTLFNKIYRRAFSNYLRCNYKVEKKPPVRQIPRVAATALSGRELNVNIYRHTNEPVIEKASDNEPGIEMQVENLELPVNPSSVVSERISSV

[5] = target: T4, 5-hydroxytryptamine receptor 2C (Homo sapiens, UniProt P28335); test: Displacement of [3H]Mesulergine from human recombinant 5-HT2C receptor expressed in CHO-K1 cells after 15 mins; type: cell-based
T4 sequence (P28335 whole entry): T3 sequence (whole entry)

[6] = target: T2, 5-hydroxytryptamine receptor 6; test: Inhibition of human recombinant 5-HT6 receptor expressed in HEK293 cells assessed as inhibition of 5-HT-induced increase in […] pretreated for 10 mins by cAMP accumulation assay; type: functional, cell-based

T1 sequence (P28223 whole entry): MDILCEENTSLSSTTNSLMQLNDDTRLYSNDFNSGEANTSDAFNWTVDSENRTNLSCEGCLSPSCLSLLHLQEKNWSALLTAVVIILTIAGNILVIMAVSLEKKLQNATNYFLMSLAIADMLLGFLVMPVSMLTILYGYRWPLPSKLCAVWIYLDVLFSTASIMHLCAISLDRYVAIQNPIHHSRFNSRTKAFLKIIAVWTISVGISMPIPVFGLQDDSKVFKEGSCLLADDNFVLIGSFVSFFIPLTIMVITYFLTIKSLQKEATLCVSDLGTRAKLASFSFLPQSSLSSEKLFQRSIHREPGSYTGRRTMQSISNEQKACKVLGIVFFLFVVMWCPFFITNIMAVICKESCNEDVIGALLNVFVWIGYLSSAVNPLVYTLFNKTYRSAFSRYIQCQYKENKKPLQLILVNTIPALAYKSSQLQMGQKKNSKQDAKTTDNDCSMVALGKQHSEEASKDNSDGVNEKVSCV
T2 sequence (P50406 whole entry): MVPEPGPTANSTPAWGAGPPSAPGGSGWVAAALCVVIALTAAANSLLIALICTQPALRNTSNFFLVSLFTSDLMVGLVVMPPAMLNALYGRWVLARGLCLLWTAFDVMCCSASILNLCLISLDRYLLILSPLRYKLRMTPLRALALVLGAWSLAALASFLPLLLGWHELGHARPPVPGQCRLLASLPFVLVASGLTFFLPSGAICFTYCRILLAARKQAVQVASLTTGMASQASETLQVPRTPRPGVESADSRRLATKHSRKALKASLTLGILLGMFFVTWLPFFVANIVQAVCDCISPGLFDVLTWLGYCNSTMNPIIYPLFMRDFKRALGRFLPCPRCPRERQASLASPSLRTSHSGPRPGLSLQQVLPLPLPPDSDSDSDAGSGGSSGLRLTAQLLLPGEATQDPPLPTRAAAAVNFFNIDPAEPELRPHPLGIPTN

Row | SMILES | inhibition [1] | inhibition [2] | IC50 [3] | inhibition [4] | IC50 [5] | IC50 [6]
1 | COc1ccc(S(=O)(=O)n2cc(/C=N/N=C/N(C)C)c3c([N+](=O)[O-])cccc32)cc1 | 90.7% | 78.6% | 205 nM | 67.8% | 1040 nM | 740 nM
2 | CN(C)/C=N/N=C/c1cn(S(=O)(=O)c2cccc3ccccc23)c2cccc([N+](=O)[O-])c12 | 94.6% | 73.9% | 555 nM | 64.2% | – | 2960 nM
3 | CCCCc1ccc(S(=O)(=O)n2cc(/C=N/N=C/N(C)C)c3c([N+](=O)[O-])cccc32)cc1 | – | 11.3% | – | – | – | –
4 | CN(C)/C=N/N=C/c1cn(S(=O)(=O)c2ccc(F)cc2)c2cccc([N+](=O)[O-])c12 | 94.2% | 63.9% | 702 nM | 55.5% | – | 4970 nM
5 | COc1ccc(Cl)cc1S(=O)(=O)n1cc(/C=N/N=C/N(C)C)c2c([N+](=O)[O-])cccc21 | 75.9% | 87.7% | 1590 nM | 44.9% | – | 2440 nM
6 | Cc1ccc(S(=O)(=O)n2cc(/C=N/N=C/N(C)C)c3c([N+](=O)[O-])cccc32)cc1 | 88.3% | 75.2% | 253 nM | 82.3% | 480 nM | 2120 nM
7 | CN(C)/C=N/N=C/c1cn(S(=O)(=O)c2ccccc2)c2cccc([N+](=O)[O-])c12 | 83.9% | 78.1% | 329 nM | 48.4% | – | 1830 nM
8 | CN(C)/C=N/N=C/c1cn(S(=O)(=O)c2ccc3ccccc3c2)c2cccc([N+](=O)[O-])c12 | 88% | 68% | 433 nM | 80.1% | 463 nM | 2530 nM
9 | CN1CCN(c2nc3ccc(NS(=O)(=O)c4cccc5ccccc45)cc3s2)CC1 | – | – | – | – | – | 3900 nM
10 | COc1ccc(OC)c(S(=O)(=O)n2cc(/C=N/N=C/N(C)C)c3c([N+](=O)[O-])cccc32)c1 | 84.4% | 78.2% | 479 nM | 48.1% | – | 1400 nM
11 | CN(C)/C=N/N=C/c1cn(S(=O)(=O)c2ccc(I)cc2)c2cccc([N+](=O)[O-])c12 | 85.2% | 62.4% | 247 nM | 66.2% | – | 6340 nM

Reference: ChEMBL document CHEMBL3397012, “Synthesis and biological evaluation of 4-nitroindole derivatives as 5-HT2A receptor antagonists” (Bioorg Med Chem, 2015)
